Experimental data published in patent US20230201212A1, “INHIBITORS OF EZH2 AND METHODS OF USE THEREOF” (Epizyme, Inc., priority 2017, published 2023).

Experiments:
[1] = oral bioavailability; settings: in vivo
[2] = system: advanced solid tumors or B-cell lymphomas; assay: phase 1 part of phase 1/2 study (NCT01897571), tazemetostat monotherapy
[3] = system: relapsed or refractory diffuse large B-cell lymphoma (DLBCL) or follicular lymphoma (FL); assay: phase 2 study (NCT01897571): objective response to tazemetostat by NGS molecular profile of archive tumor; assay type: in vivo, human
Procedure: […]. […] The primary study endpoint is objective overall response rate.
During screening, archive tumor- and/or plasma-derived circulating tumor DNA (ctDNA) samples were obtained. Archive tumor was analyzed prospectively for EZH2-activating mutations Y646F, Y646N, Y646X (Y646H, Y646C, and Y646S), A682G, and A692V using a cobas® EZH2 Mutation Test (Roche Molecular Systems, Inc., Pleasanton, CA, USA). Next generation sequencing (NGS) was performed retrospectively on DNA derived from archive tumor and plasma samples to identify somatic mutations, amplifications, and translocations using an NHL-specific 62-gene panel on the Illumina HiSeq 2500 platform (Illumina, Inc., San Diego, CA, USA) with 100 bp paired-end reads (Table 1).
ctDNA was approximately 20,000 X for mutations and 3700 X for structural alterations. Sequencing data were aligned to the human reference sequence (hg19) and analyzed using validated cancer genome analysis algorithms (Personal Genome Diagnostics, Baltimore, MD, USA). EZH2 mutation detection rates in archive tumor were ~12% in DLBCL and 19% in FL in the total phase 2 cohort (Table 2), consistent with previous reports.

[4] = Genetic Profile 1, patients matching profile (19)
[5] = Genetic Profile 1, patients not matching profile (73)
[6] = Genetic Profile 2, patients matching profile (26)
[7] = Genetic Profile 2, patients not matching profile (66)

CCN(c1cc(-c2ccc(CN3CCOCC3)cc2)cc(C(=O)NCc2c(C)cc(C)[nH]c2=O)c1C)C1CCOCC1 [tazemetostat]
oral bioavailability [1]: orally bioavailable | safety profile as monotherapy ([2]; monotherapy, patients): acceptable | objective responses ([2]; phase 1, adult patients, tumors exhibiting mutated or wild-type EZH2): objective responses to tazemetostat were observed | Nonresponder (SD/PF/UK), % [3, 4]: 42.1% | Responder (CR/PR), % [3, 4]: 57.9% | Nonresponder (SD/PF/UK), % [3, 5]: 80.8% | Responder (CR/PR), % [3, 5]: 19.2% | Nonresponder (SD/PD/UK), % [3, 6]: 42.3% | Responder (CR/PR), % [3, 6]: 57.7% | Nonresponder (SD/PD/UK), % [3, 7]: 84.8% | Responder (CR/PR), % [3, 7]: 15.2% | Response preference ([3]; gene EZH2, P-value 0.0253): Mutant | Response preference ([3]; gene MYD88 L273P, P-value 0.0841): Mutant | Response preference ([3]; gene STAT6, P-value 0.0753): Mutant | objective overall response rate ([3]; patients matching multigene predictor: wild-type MYC and/or HIST1H1E with mutated STAT6 and/or MYD88 in archive tumor (11/19)): ~ 58% | objective overall response rate ([3]; patients not matching the multigene predictor (14/73)): ~19%
